The text below walks through data of patent publication US20220175688A1, “POLYMERIC NANOPARTICLES” (Hillstream BioPharma, Inc., priority 2015, published 2022).

As a reminder, the IC50 is the concentration at which inhibition is half-maximal. Lower therefore signals greater potency.

Data set [1] in a line: Size, zeta potential, % EE of singly or dually loaded PLA72K-PEG-PPG-PEG12.5K NPs. The data set is classed as physicochemical.
Method: PTX loaded nanoparticles were produced using an emulsion-solvent evaporation method. Briefly, 50 mg of copolymer in 5 ml acetonitrile (ACN) and 5 mg of PTX (LC Laboratories, Boston, Mass., US) were dissolved in 100 ul ACN and added to 50 mg of PLA-PEG-PPG-PEG solution in 5 ml ACN. The resulting mixture was then added into a 20 ml aqueous phase composed of F127 in distilled water and stirred at room temperature for 6 to 8 hours to facilitate solvent evaporation and nanoparticle stabilization. PTX and NuBCP-9 peptide loaded PLA-PEG-PPG-PEG (50 mg) nanoparticles were prepared by double emulsion process. Paclitaxel was added into the dissolved PLA-PEG-PPG-PEG copolymer followed by immediate addition of peptide with a slight sonication. […]
Nanoparticles were filtered through an Amikon 30-kDa ultrafilter (Millipore, USA) and washed twice with MQ water to remove free drug/dye. […] The filtrate was collected and analyzed for free NuBCP-9 peptide by a Micro-BCA Kit (Pierce Chemicals, USA) and measured on EPOCH microplate reader (BioTek, US) at 590 nm. Similarly, free paclitaxel was measured through high performance liquid chromatography HPLC (Perkin Elmer, US) assay method, using C18 column with acetonitrile, Water, Methanol (60:35:5 volume ratio) as mobile phase. Encapsulation efficiency (EE %) of NuBCP-9 peptide/PTX was determined using the following formula:
The test system of data set [2] is MCF-7 breast cancer cells. As to the kind of experiment: In vitro cytotoxicity, XTT cell proliferation assay. The settings on record: Homo sapiens, MCF7, 72 hrs. Type of data set: cell-based. On the procedure:
(§1) D. In vitro cytotoxicity analysis: […] The cells were maintained at 37° C. and 5% CO2 atmosphere for the duration of experiments. Exponentially growing cancer cells were plated into a 96-well plate at a seeding density of 3000 cells per well and incubated for 24 hrs.

The subject of data set [3] is MDA-MB231 breast cancer cells. The data set is described as above. Type of data set: cell-based. The settings on record: Homo sapiens, MDA-MB-231, 72 hrs. The protocol: as §1
Data set [4] concerns Ehrlich tumor. Description: Antitumor activity in syngeneic Ehrlich tumor model (Example 8). Type of data set: in vivo, Balb/c mice. The settings on record: 21 days treatment. On the procedure: H. Analysis of antitumor activity: Mice Ehrlich tumor cells were injected subcutaneously in the hind limb of syngeneic Balb/c mice (17-22 g). Tumor bearing mice (˜150 mm^3) were divided into 9 groups (6 mice/group) and treated weekly or biweekly intraperitoneally (i.p.) with different formulations for 21 days. Tumor volume was determined by vernier caliper and calculated using the formula (A×B^2)×0.5, where A and B are the longest and shortest tumor diameters, respectively. From each group, 1 mouse was sacrificed on day 7, 14, and 21 for harvesting of tumor for histopathologal examination. The tumors were fixed in 10% formalin/saline and embedded in paraffin. Five-micrometer sections were stained with hematoxylin and eosin for further immunohistochemistry, TUNNEL and Ki67 assay. Statistical analysis of tumor volumes was performed by one-way ANOVA using Graph pad prism. Survival of the mice was determined by the Kaplan-Meier method using Prism 4.0 software (Graph Pad Software).
The in vivo antitumor efficacy and systemic toxicity of the dual-drug and single drug loaded nanoparticles were evaluated on EAT tumor model Balb/c mice. […]

Data set [5] deals with MCF-7/PTX-R. As to the kind of experiment: IC50 in PTX-resistant MCF-7 cells (Example 9). The settings on record: Homo sapiens, MCF7. The data set is classed as cell-based. The source says: (§2) Accordingly, MCF-7 cells resistant to PTX were generated by exposure to increasing PTX concentrations (Table 9).
The subject of data set [6] is MCF-7/PTX-R cells. Description: Apoptosis in PTX-resistant cells (Annexin V/PI, FLOW, caspase-3 and PARP cleavage). Type of data set: cell-based, Human. Conditions: 100 nM, 48 h. The protocol:
Cells were then stained with Annexin V/PI and analyzed by FACS. […] (see Example 9).
Analysis was performed by immunoblotting with anti-caspase-3 CF, anti-PARP CF and anti-β-Actin antibodies (see Example 9).
as §2

For data set [7], the system named is breast cancer. Conditions: first-line treatment of locally recurrent or metastatic breast cancer; cited from earlier work.
Data set [8] is described as follows: Isoelectric point of peptide. Type of data set: physicochemical.

Consider `CC(=O)O[C@H]1C(=O)[C@@]2(C)[C@H]([C@H](OC(=O)c3ccccc3)[C@]3(O)C[C@H](OC(=O)[C@H](O)[C@@H](NC(=O)c4ccccc4)c4ccccc4)C(C)=C1C3(C)C)[C@]1(OC(C)=O)CO[C@@H]1C[C@@H]2O` [PTX, Paclitaxel], for which the “EE % of PTX” value in data set [1] (encapsulation efficiency) was found to be 87%. In addition, the figures for the half-inhibitory concentration (IC50) in data set [2], in data set [3] and in data set [5] were 38 nM, 46 nM and 1.75 µM, respectively. Moreover, in data set [4], the “Ki67 expression in tumor tissues” value is “high”. In addition, the induction of apoptosis result in data set [6] is reported as “not”. Also, in data set [7], the progression-free survival is 11 months.

“FSRSLHSLL (listed as Homo sapiens) [NuBCP-9]”: in data set [1] (encapsulation efficiency of NuBCP-9), the “EE % of Peptide” value is listed as 64.5%. Besides, in data set [8], the isoelectric point is ~7.2 pH.
